Values quoted from earlier work, collected in patent US20070196901A1, “Kahalalide-producing bacteria” (priority 2003, published 2007).

Tests used:
HIV-1 = details: read-out: HIV-1 EC50; antiviral
[1] = tested on: AIDS-opportunistic infection pathogens; details: against AIDS-opportunistic infection pathogens, compared with reference drugs

kahalalide F [KF]
EC50 (HIV-1): 14.2 µM
antifungal activity [1]: comparable to the activity of the drugs Amphotericin B and Ketoconazole/Rifampin
inhibition of M. tuberculosis (M. tuberculosis): moderately inhibitory
efficacy in clinical trials against prostate cancer (prostate cancer): effective
